Measured values taken from patent US20150038435A1, “N-TERMINALLY MODIFIED OLIGOPEPTIDES AND USES THEREOF” (Novo Nordisk A/S, priority 2012, published 2015).
Starred links: 1 amine or outer side, 2 acyl side, 3 side chain; linkers in the order of their positions; H or OH if unused. Non-standard residues stand in square brackets, D forms with d. *: point of attachment. γGlu = O=C(O)[C@H](CCC(=O)[*:2])N[*:1]; Lauroyl = CCCCCCCCCCCC(=O)*

Experiments:
[1] = Hydrophobicity: retention time during reverse phase HPLC; type: physicochemical; conditions: Acquity CSH C18; pH 7.2 buffer/CH3CN gradient; 40° C.
Description: The retention time (RT) during reverse phase HPLC was taken as a measure of hydrophobicity of an N-terminally modified peptide or oligopeptide of the invention, where the connection is: The longer the RT, the more hydrophobic N-terminally modified peptide or oligopeptide. The following running conditions were applied during HPLC analysis:
Buffer B: 70% (v/v) aq. CH3CN

Chymotrypsin = test: Inhibition of enzymatic degradation of a model GLP-1 (FRET substrate) by chymotrypsin; type: biochemical
In short: (§1)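 MCA/DNP-labelled model GLP-1 FRET substrate (10 μl of 100 μM stock) in Dulbecco's PBS at 37° C with varying acylated peptide; fluorescence (ex 320/em 405 nm) read every minute for ≥30 min. Initial slopes from linear regression, duplicates averaged; EC50 by sigmoidal logistic fit of slope vs concentration.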

Trypsin = test: Inhibition of enzymatic degradation of a model GLP-1 (FRET substrate) by trypsin; type: biochemical
In short: as §1

[2] = compound 0.1 mM, buffer containing 8% DMSO

Substance	RT (retention time during reverse phase HPLC as a measure of hydrophobicity) [1]	Slope of the initial increase in fluorescence obtained during incubation with 0.001 mg/ml Chymotrypsin (Chymotrypsin; [2])	Slope of the initial increase in fluorescence obtained during incubation with 0.001 mg/ml Trypsin (Trypsin; [2])	Slope of the initial increase in fluorescence obtained during incubation with 0.001 mg/ml Chymotrypsin (Chymotrypsin; compound 1 mM)	Slope of the initial increase in fluorescence obtained during incubation with 0.001 mg/ml Trypsin (Trypsin; compound 1 mM)	EC50 (Chymotrypsin; read-out: EC50 Chymotrypsin (0.001 mg/ml), 0.001 mg/ml chymotrypsin, 37° C., ± standard error if at least 3 measurements)	EC50 (Trypsin; read-out: EC50 Trypsin (0.001 mg/ml), 0.001 mg/ml trypsin, 37° C.)
N-dodecanoyl-Met-Pro-Tyr-OH [Example 123]	7.23 min	0.82	2.11				
N-dodecanoyl-OEG-OEG-DPhe-OEG-OH [Example 131]	6.21 min			0.53	0.62		
N-dodecanoyl-OEG-OEG-DPhe-OH [Example 129]	6.34 min			0.16	0.38	341 µM	391 µM
N-dodecanoyl-OEG-OEG-Phe-OEG-OH [Example 130]	6.21 min			0.54	0.67		
N-dodecanoyl-OEG-OEG-Phe-OH [Example 128]	3.08 min			0.86	0.35		
N-dodecanoyl-Phe-Pro-Tyr-OH [Example 124]	8.19 min	0.12	0.63				
N-dodecanoyl-Pro-Ala-Ala-Pro-Tyr-OH [Example 48]	6.2 min	0.07	1.55				
N-dodecanoyl-Pro-Ala-Pro-Tyr-OH (Lauroyl-PAPY-OH; SMILES CCCCCCCCCCCC(=O)N1CCC[C@H]1C(=O)N[C@@H](C)C(=O)N1CCC[C@H]1C(=O)N[C@@H](Cc1ccc(O)cc1)C(=O)O) [Example 49]	6.2 min	0.57	1.96				
N-dodecanoyl-Pro-Pro-Tyr-OH [Example 106]	6.01 min	1.72	1.75				
N-dodecanoyl-Ser-Ala-Ala-Pro-Tyr-OH [Example 50]	5.16 min	0.09	1.48				
N-dodecanoyl-Ser-Ala-Pro-Tyr-OH (Lauroyl-SAPY-OH; SMILES CCCCCCCCCCCC(=O)N[C@@H](CO)C(=O)N[C@@H](C)C(=O)N1CCC[C@H]1C(=O)N[C@@H](Cc1ccc(O)cc1)C(=O)O) [Example 51]	5.2 min	0.41	1.66				
N-dodecanoyl-Ser-Pro-Tyr-OH [Example 107]	5.58 min	0.89	1.99				
N-dodecanoyl-Thr-Ala-Ala-Pro-Tyr-OH [Example 52]	5.47 min	0.01	1.68				
N-dodecanoyl-Thr-Ala-Pro-Tyr-OH (Lauroyl-TAPY-OH; SMILES CCCCCCCCCCCC(=O)N[C@H](C(=O)N[C@@H](C)C(=O)N1CCC[C@H]1C(=O)N[C@@H](Cc1ccc(O)cc1)C(=O)O)[C@@H](C)O) [Example 53]	5.52 min	0.16	1.80				
N-dodecanoyl-Thr-Pro-Tyr-OH [Example 108]	5.72 min	0.59	1.92				
N-dodecanoyl-Trp-Pro-Tyr-OH [Example 109]	8.24 min	0.05	0.73				
N-dodecanoyl-Tyr-Pro-Tyr-OH [Example 110]	6.24 min	0.35	1.77				
N-dodecanoyl-Val-Ala-Ala-Pro-Tyr-OH [Example 54]	7.08 min	0.95	1.95				
N-dodecanoyl-Val-Ala-Pro-Tyr-OH (Lauroyl-VAPY-OH; SMILES CCCCCCCCCCCC(=O)N[C@H](C(=O)N[C@@H](C)C(=O)N1CCC[C@H]1C(=O)N[C@@H](Cc1ccc(O)cc1)C(=O)O)C(C)C) [Example 55]	7.01 min	0.42	1.88				
N-dodecanoyl-Val-Pro-Tyr-OH [Example 111]	7 min	0.31	1.93				
N-dodecanoyl-βAla-Ala-Pro-Phe-OH [Example 8]	6.13 min			0.03	0.70		
N-dodecanoyl-βAla-βAla-Pro-Phe-OH [Example 10]	6.04 min			0.05	3.29		
N-dodecanoyl-γGlu-Ala-Ala-Pro-Phe-OH [Example 12]	4.04 min			0.76	0.30		
N-dodecanoyl-γGlu-Ala-Ala-Pro-Tyr-OH [Example 97]	3.79 min	0.55	1.31				
N-dodecanoyl-γGlu-Ala-Pro-Tyr-OH (Lauroyl-[γGlu]APY-OH; SMILES CCCCCCCCCCCC(=O)N[C@@H](CCC(=O)N[C@@H](C)C(=O)N1CCC[C@H]1C(=O)N[C@@H](Cc1ccc(O)cc1)C(=O)O)C(=O)O) [Example 98]	3.79 min	1.39	1.53				
N-dodecanoyl-γGlu-OEG-Ala-Ala-Pro-Phe-OH [Example 125]	3.95 min			0.75	0.38		
N-dodecanoyl-γGlu-OEG-OEG-Arg-OH [Example 132]	3.62 min			0.35	0.26		
N-dodecanoyl-γGlu-OEG-OEG-DArg-OH [Example 133]	3.62 min			0.27	0.09		
